Reference: patent US10912767B2, “Anthracycline prodrugs and methods of making and using the same” (THE REGENTS OF THE UNIVERSITY OF COLORADO, priority 2015, dated 2021)
Like-named read-outs stand apart in the source and are kept apart here.

Columns and labels:
[1] = test system: NCI/ADR-RES multi-drug resistant ovarian cancer cell line; test: Tumor cell growth inhibition, crystal violet (Example 2); type: cell-based; settings: for IC50: read-out: IC50
Source text: (§1) In order to investigate the photolysis of the drugs in a system amenable to cell culture use, a custom UV irradiation apparatus was constructed, consisting of 3 small blacklight fluorescent bulbs (Southern New England Ultraviolet Co., λmax=350 nm) set between two ring stands and suspended at a height of 11.5 cm. The bulbs' housing was reflective aluminum so as to direct as much UV irradiation as possible downward toward the plate. Upon installation in sterile cell culture hood, the power of the system was measured at approximately 6-7 mW using a Scientech laser power meter. Prior to experimentation, the hood and irradiation apparatus was sterilized with 254 nm germicidal UV irradiation overnight. Using this setup, 100 μM of 4,5-dimethoxy-2-nitrobenyl alcohol (DMNA), photodoxazolidine R═H, and glucose-PEG-photodoxazoldine were irradiated in individual wells of a 24-well plate. Initially, 50 μL of a DMSO stock was diluted with 950 μL of PBS and aliquots of 50 μL were removed at various times (0-180 min), mixing by pipetting each time. The timepoints were analyzed by HPLC (method 2) and plotted as fractional conversion versus time. […] Therefore, a second experiment was performed in which the PBS was replaced with 1:1 acetonitrile:water. With this system of 5% DMSO/47.5% acetonitrile/47.5% water, no visible precipitation was produced over the course of the reaction.
(§2) The ovarian carcinoma line NCl/ADR-RES (ADR) was grown in high-glucose Dulbecco's Modified Eagle Medium (DMEM) supplemented with 10% fetal bovine serum (FBS), 200 units/mL of penicillin and 200 μg/mL of streptomycin. The breast carcinoma line MDA-MB-231 was cultured in low-glucose DMEM with the same additives. Both lines were maintained in a humidified incubator with 5% CO2/95% air at 37° C. UV irradiations were performed with the apparatus described above.
(§3) Growth inhibition experiments were performed by seeding cells into 96-well plates or 24-well plates at densities of 1000-1500 cells per well or 8000 cells per well, respectively, and allowing the cells to adhere overnight. The media was then replaced with a range of aqueous concentrations of the drug in question and allowed to incubate at 37° C. with the cells for a span of time (Inc1) which ranged from 1 min to 48 hours. Irradiation was performed at room temperature with the plate's lid removed and ranged from 1 to 30 min. In some experiments, the drug solution was removed following Inc1 and irradiated in clean media or PBS. Following irradiation, the cells were placed back into the 37° C. incubator for a second period of incubation (Inc2), which varied between 1 min and 24 h, prior to replacement with fresh media. Plates which received no irradiation but identical treatment otherwise were done in parallel. The cells were then grown until the no-drug control wells reached approximately 80% confluence or 5 days, whichever was shorter. […] The cells were fixed with 5% formalin in PBS, stained with crystal violet, washed with tap water, and air-dried. The stain was resolubilized in 50% isopropyl alcohol, 50% H2O containing 2% (w/v) SDS. The staining density was read on a multiwell plate reader at 588-600 nm. Percentage cell density was calculated relative to the irradiated no-drug control wells, plotted as a function of drug concentration, and fit using non-linear least squared analysis with a variable-slope dose response model in GraphPad Prism 5.0 software.
(§4) Although the introduction of a long-pass glass filter between the light source and the plate alleviated this effect to a small extent, a maximum irradiation time of 10 min was settled upon. […] Since a media change at that point would remove the cells as well, the re-adherence of the cell population was accomplished by the addition of a large volume (200 μL) of complete media following Inc2, and overnight incubation. Then, a full media change was done to remove the drug. […]

[2] = Solubility observed in irradiation solvent; type: physicochemical
Source text: In order to investigate the photolysis of the drugs in a system amenable to cell culture use, a custom UV irradiation apparatus was constructed, consisting of 3 small blacklight fluorescent bulbs (Southern New England Ultraviolet Co., λmax=350 nm) set between two ring stands and suspended at a height of 11.5 cm. The bulbs' housing was reflective aluminum so as to direct as much UV irradiation as possible downward toward the plate. Upon installation in sterile cell culture hood, the power of the system was measured at approximately 6-7 mW using a Scientech laser power meter. Prior to experimentation, the hood and irradiation apparatus was sterilized with 254 nm germicidal UV irradiation overnight. Using this setup, 100 μM of 4,5-dimethoxy-2-nitrobenyl alcohol (DMNA), photodoxazolidine R═H, and glucose-PEG-photodoxazoldine were irradiated in individual wells of a 24-well plate. Initially, 50 μL of a DMSO stock was diluted with 950 μL of PBS and aliquots of 50 μL were removed at various times (0-180 min), mixing by pipetting each time. The timepoints were analyzed by HPLC (method 2) and plotted as fractional conversion versus time. […]
The measured quantum yield of 0.002 for photodoxazolidine R═H (above) was lower than expected, which raised the possibility that the presence of the anthraquinone ring complex in the prodrugs was inhibiting photocleavage by quenching the activated state. […]

[3] = test system: MDA-MB-231 breast cancer cells; test: Tumor cell growth inhibition, crystal violet (Example 2); type: cell-based, human; settings: for IC50: read-out: IC50
Source text: as §1, §2, §3, §4

[4] = test system: MDA-MB-231 breast carcinoma cells; test: Tumor cell uptake by flow cytometry; type: cell-based, human; settings: 500 nM, 30 min to 4 h, compared against doxorubicin
Procedure: Uptake of the drugs by the cells was measured by flow cytometry. The cells were incubated with 500 nM photodoxazolidine R═H, azido-PEG-photodoxazolidine, or doxorubicin dissolved in 1:1 PBS:serum-free media for between 30 min and 4 h, after which the drug was removed and the cells washed with cold PBS. Cells were trypsinized to a single-cell suspension, rinsed again in cold PBS, and stored on ice for analysis by flow cytometry, monitoring the presence of the anthraquinone fluorophore (channel FL2). Cell populations were gated for intact cells in the side-scatter/forward-scatter plot and 10,000 gated events were scored for each timepoint. The mean fluorescence of the population was compared to the mean fluorescence of 10,000 gated events for an untreated population and the fold increase over background was plotted versus time of drug incubation.
Using MDA-MB-231 breast carcinoma cells, the cellular uptake of photodoxazolidine and azido-PEG-photodoxazolidine was analyzed by flow cytometry and compared against the uptake of doxorubicin.

For `COc1cc(COC(=O)N2COC3C(C)OC(OC4CC(O)(C(=O)CO)Cc5c(O)c6c(c(O)c54)C(=O)c4c(OC)cccc4C6=O)CC32)c([N+](=O)[O-])cc1OC` (centres unmarked) [Photodoxazolidine], the “fold drop of IC50 on near UV irradiation” value ([1]; 10 min UV vs alone) was “more than 30 fold”, the IC50 ([1]; +UV 10 min, near UV 350 nm) was 110 nM and the “times more toxic than doxorubicin alone” value ([1]; prodrug alone) was 2-3 times. The IC50 ([1]; prodrug alone, no UV) was 3500 ± 800 nM, the IC50 ([1]; prodrug alone) was ~3500 nM and the “solubility in PBS” value [2] was “poor solubility”. For the same compound, the “fold drop of IC50 on near UV irradiation” value ([3]; MDA-MB-231, 10 min UV vs alone) was “approximately 22 fold”, the IC50 ([3]; MDA-MB-231, +UV 10 min, near UV 350 nm) was 73 nM and the IC50 ([3]; MDA-MB-231, prodrug alone, no UV, listed as Photodoxaz) was 1600 ± 120 nM. For the same compound, the IC50 ([3]; MDA-MB-231, prodrug alone, no UV, listed as photodoxazolidine) was ~1600 nM and the “cellular uptake (cellular fluorescence)” value [4] was “rapid increase in cellular fluorescence”.
